Results reported in patent US6337417B1, “N-phenyltetrahydrophthalamic acid derivatives, methods of producing same, and herbicides containing same as effective components” (Central Glass Co., Ltd., priority 1994, dated 2002).

Columns and labels:
Format in all cases: in vivo
Set-up in all cases: key: 5: completely killed; 4: seriously injured; 3: considerably injured; 2: somewhat injured; 1: slightly injured; 0: not injured (normally grown)
[1] = system: cockspur (Panicum crus-galli); experiment: Experiment 5 foliage treatment: cockspur; settings: foliage spray of wettable powder suspension, evaluated 4 weeks after treatment
Procedure: (§1) Upon seedling stage (two- or three-leaved stage) of rice, cockspur (Panicum crus-galli), garden radish, aobiyu (slender amaranth, Amaranthus viridis) and mehishiba (henry crabgrass, Digitaria cliaris) which were grown on a cultivated soil put in pots of 1/15500 ares, a selected compound obtained in a manner analogous to Example 11, in suspended wettable powder, was sprayed to each plant. After that, the pots were kept in a glass chamber to allow each plant to grow, and after the lapse of 4 weeks from the treatment with the selected compounds the herbicidal effects were evaluated. The evaluation of the herbicidal effects was similarly conducted as that of Experiment 1.

[2] = system: mehishiba (henry crabgrass, Digitaria cliaris); experiment: Experiment 5 foliage treatment: mehishiba; settings: foliage spray of wettable powder suspension, evaluated 4 weeks after treatment
Procedure: as §1

garden radish = experiment: Experiment 5 foliage treatment: garden radish; settings: foliage spray of wettable powder suspension, evaluated 4 weeks after treatment
Procedure: as §1

paddy rice = experiment: Experiment 4 flooded soil treatment: injury to paddy rice; settings: 4 weeks after treatment
Description: (§2) Paddy soil (clay loam) was put into a pot so as to have a surface area of 1/15500 ares. Uniformly mixed seeds of several kinds of weeds, viz., nobie (barnyardgrass, Echinochloa spp.), broad-leaved weeds, hotarui (bulrush, Scirpus juncoides) and tamagayatsuri (small-flowered umbrellaplant, Cyperus difformis), were sown in the surface layer of the soil in each pot, and then paddy rice seedlings at the two- or three-leaved stage were transplanted into each pot to a depth of 2 cm, and water was fed into each pot so as to provide a 3 cm deep water layer on the soil surface. After 3 days, in other words at the initial stage of germination of nobie (barnyardgrass, Echinochloa spp.), a predetermined amount of a selected compound obtained in a manner analogous to Example 11 in the form of diluted aqueous solution was dropped into the water layer in each pot. After that, the pots were kept in a glass chamber to allow the paddy rice and the weeds to grow, and after the lapse of 4 weeks from the treatment with the selected compounds, the herbicidal effects and the degree of injury to the paddy rice were evaluated. The evaluation of the herbicidal effects was similarly conducted as to that of Experiment 1.

[3] = system: nobie (barnyardgrass, Echinochloa spp.); experiment: Experiment 4 flooded soil treatment: nobie; settings: 4 weeks after treatment
Description: as §2

broad-leaved weeds = experiment: Experiment 4 flooded soil treatment: broad-leaved weeds; settings: 4 weeks after treatment
Description: as §2

[4] = system: tamagayatsuri (small-flowered umbrellaplant, Cyperus difformis); experiment: Experiment 4 flooded soil treatment: tamagayatsuri; settings: 4 weeks after treatment
Description: as §2

[5] = system: aobiyu (slender amaranth, Amaranthus viridis); experiment: Experiment 5 foliage treatment: aobiyu; settings: foliage spray of wettable powder suspension, evaluated 4 weeks after treatment
Procedure: as §1

rice = experiment: Experiment 5 foliage treatment: rice; settings: foliage spray of wettable powder suspension, evaluated 4 weeks after treatment
Procedure: as §1

[6] = system: hotarui (bulrush, Scirpus juncoides); experiment: Experiment 4 flooded soil treatment: hotarui; settings: 4 weeks after treatment
Description: as §2

| SMILES | Herbicidal Effect cockspur ([1]; 40 g/10a) | Herbicidal Effect cockspur ([1]; 80 g/10a) | Herbicidal Effect mehishiba ([2]; 40 g/10a) | Herbicidal Effect mehishiba ([2]; 80 g/10a) | Herbicidal Effect garden radish (garden radish; 40 g/10a) | Herbicidal Effect garden radish (garden radish; 80 g/10a) | Injury of Paddy (paddy rice; 3.13 g/10a) | Injury of Paddy (paddy rice; 6.25 g/10a) | Herbicidal Effect nobie ([3]; 3.13 g/10a) | Herbicidal Effect nobie ([3]; 6.25 g/10a) | Herbicidal Effect broad-leaved weed (broad-leaved weeds; 3.13 g/10a) | Herbicidal Effect broad-leaved weed (broad-leaved weeds; 6.25 g/10a) | Herbicidal Effect tamagayatsuri ([4]; 3.13 g/10a) | Herbicidal Effect tamagayatsuri ([4]; 6.25 g/10a) | Herbicidal Effect aobiyu ([5]; 40 g/10a) | Herbicidal Effect aobiyu ([5]; 80 g/10a) | Herbicidal Effect rice (rice; 40 g/10a) | Herbicidal Effect rice (rice; 80 g/10a) | Herbicidal Effect hotarui ([6]; 3.13 g/10a) | Herbicidal Effect hotarui ([6]; 6.25 g/10a) |
| --- | --- | --- | --- | --- | --- | --- | --- | --- | --- | --- | --- | --- | --- | --- | --- | --- | --- | --- | --- | --- |
| C#CC(C)Oc1cc(N(C(=O)C2=C(C(=O)OCCC)CCCC2)C(=O)c2cccnc2)c(F)cc1Cl (stereo not drawn) [Compound No. 58] | 1 | 1 | 1 | 3 | 5 | 5 | 0 | 0.5 | 5 | 5 | 5 | 5 | 5 | 5 | 5 | 5 | 1 | 1 | 4 | 4.5 |
| COC(=O)CSc1cc(N(C(=O)C2=C(C(=O)OC)CCCC2)C(=O)c2cccnc2)c(F)cc1Cl [compound 63] | 1 | 1 | 1 | 1 | 4.5 | 4.5 | 0 | 0 | 5 | 5 | 5 | 5 | 4 | 5 | 5 | 5 | 1 | 1 | 4 | 4 |
| C#CC(C)Oc1cc(N(C(=O)C2=C(C(=O)OC3CCCC3)CCCC2)C(=O)c2cccnc2)c(F)cc1Cl (stereo not drawn) [compound 62] | 1 | 1 | 1 | 1 | 4.5 | 5 | 0 | 0.5 | 5 | 5 | 5 | 5 | 5 | 5 | 5 | 5 | 1 | 1 | 4 | 4 |
| COC(=O)C1=C(C(=O)N(C(=O)c2cccnc2)c2cc(OC(C)C)c(Cl)cc2F)CCCC1 [compound 56] | 1 | 1 | 1 | 1 | 5 | 5 | 0.5 | 0.5 | 5 | 5 | 4.5 | 5 | 5 | 5 | 5 | 5 | 1 | 1 | 5 | 5 |
| C#CC(C)Oc1cc(N(C(=O)C2=C(C(=O)OCCCC)CCCC2)C(=O)c2cccnc2)c(F)cc1Cl (stereo not drawn) [compound 59] | 0 | 1 | 1 | 1 | 5 | 5 | 0.5 | 0.5 | 5 | 5 | 5 | 5 | 5 | 5 | 5 | 5 | 1 | 1 | 4 | 4 |
| C#CC(C)Oc1cc(N(C(=O)C2=C(C(=O)OC(C)C)CCCC2)C(=O)c2ccc(Cl)nc2)c(F)cc1Cl (stereo not drawn) [compound 68] | 1 | 1 | 1 | 1 | 5 | 5 | 0 | 0.5 | 5 | 5 | 5 | 5 | 5 | 5 | 5 | 5 | 1 | 1 | 4 | 4.5 |
| C#CC(C)Oc1cc(N(C(=O)C2=C(C(=O)OCCOC)CCCC2)C(=O)c2ccc(Cl)nc2)c(F)cc1Cl (stereo not drawn) [compound 69] | 1 | 1 | 2 | 2 | 4.5 | 5 | 0.5 | 0.5 | 5 | 5 | 5 | 5 | 5 | 5 | 5 | 5 | 1 | 1 | 4 | 4.5 |
| C#CC(C)Oc1cc(N(C(=O)C2=C(C(=O)OCCOC)CCCC2)C(=O)c2cccnc2)c(Cl)cc1Cl (stereo not drawn) [compound 71] | 1 | 1 | 2 | 2 | 4 | 5 | 0 | 0 | 5 | 5 | 5 | 5 | 5 | 5 | 5 | 5 | 1 | 1 | 4 | 4 |
| C#CC(C)Oc1cc(N(C(=O)C2=C(C(=O)OC)CCCC2)C(=O)c2cccnc2)c(Cl)cc1Cl (stereo not drawn) [compound 70] | 1 | 1 | 2 | 2 | 4 | 5 | 0 | 0 | 5 | 5 | 5 | 5 | 5 | 5 | 5 | 5 | 1 | 1 | 4 | 4 |
